Molecules are shown by their SMILES. Counter-ions that a name gives are not always drawn. A value given as a limit tells only on which side of the number the result lay.

In the assay the target is Genome polyprotein (West Nile virus, UniProt P06935). Description: inhibitors of WNV NS2B-NS3 protease, dose response, biochemical, confirmation (AID 653).
Chain of Genome polyprotein (P06935 1371-1501 limits assumed): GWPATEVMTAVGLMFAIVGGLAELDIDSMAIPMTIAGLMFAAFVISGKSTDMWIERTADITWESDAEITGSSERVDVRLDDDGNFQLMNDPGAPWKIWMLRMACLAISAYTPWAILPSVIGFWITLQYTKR
Chain of Genome polyprotein (P06935 1502-2120 limits assumed): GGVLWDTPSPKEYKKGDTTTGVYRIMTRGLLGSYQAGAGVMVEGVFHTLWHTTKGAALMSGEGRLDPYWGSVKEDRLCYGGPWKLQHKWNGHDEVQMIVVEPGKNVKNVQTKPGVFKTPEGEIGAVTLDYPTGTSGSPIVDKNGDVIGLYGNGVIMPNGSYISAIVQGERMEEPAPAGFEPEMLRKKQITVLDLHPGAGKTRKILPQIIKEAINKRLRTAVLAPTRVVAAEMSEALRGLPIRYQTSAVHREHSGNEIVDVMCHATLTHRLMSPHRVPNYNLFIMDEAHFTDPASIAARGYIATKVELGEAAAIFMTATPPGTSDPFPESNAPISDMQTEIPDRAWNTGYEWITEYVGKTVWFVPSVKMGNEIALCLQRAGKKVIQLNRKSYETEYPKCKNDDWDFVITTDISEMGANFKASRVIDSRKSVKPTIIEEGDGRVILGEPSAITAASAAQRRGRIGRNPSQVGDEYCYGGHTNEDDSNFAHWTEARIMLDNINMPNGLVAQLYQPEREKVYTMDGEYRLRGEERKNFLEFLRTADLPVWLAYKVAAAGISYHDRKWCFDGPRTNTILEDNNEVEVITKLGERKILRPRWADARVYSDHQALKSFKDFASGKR

As usually defined, the IC50 is the midpoint of a concentration-inhibition curve. The molecule `Nc1cc(OC(=O)c2ccccc2Br)nn1S(=O)(=O)c1ccccc1` [2-bromobenzoic acid (5-amino-1-besyl-pyrazol-3-yl) ester] returned an IC50 of 1.26 µM.

As to `CN(C)/C=C1/Sc2ccccc2C1=O` [(2E)-2-(dimethylaminomethylene)benzothiophen-3-one], the IC50 is more than 50 µM.

Turning to `CCOC(=O)c1[nH]c2ccccc2c1NC(=O)CC` [3-(1-oxopropylamino)-1H-indole-2-carboxylic acid ethyl ester], the IC50 is more than 50 µM.

In the case of `Cc1ccc(S(=O)(=O)n2nc(OC(=O)c3ccco3)cc2N)cc1` [MLS000033865], the IC50 came to 14.4 µM.

Turning to `Cc1sc2nc3c4ccccc4c(NCc4ccco4)nn3c(=O)c2c1C` [MLS000056809], the IC50 was more than 50 µM.

For `CCN1CCN(C(=O)C2c3cc(OC)c(OC)cc3C(=O)N3CCc4ccccc4C23)CC1` (stereo not drawn) [13-(4-ethylpiperazin-1-yl)carbonyl-10,11-dimethoxy-5,6,13,13a-tetrahydroisoquinolino[2,1-b]isoquinolin-8-one], the IC50 was more than 50 µM.

Turning to `Cc1ccccc1S(=O)(=O)Cc1ccc(C(=O)NCCCOC(C)C)o1` [5-[(2-methylphenyl)sulfonylmethyl]-N-(3-propan-2-yloxypropyl)-2-furancarboxamide], the concentration for half-maximal inhibition (IC50) was more than 50 µM.

As for `CC(C)(S)[C@@H](N)C(=O)O` [MLS000028669], the IC50 was more than 50 µM.

`CC(C)n1c(-c2cccnc2)nc2cnccc21` [1-isopropyl-2-(3-pyridyl)imidazo[4,5-c]pyridine]: the IC50 is more than 50 µM.

With `Cc1ccc(OCC(=O)Nc2ccc(-c3nnc(-c4ccco4)o3)cc2)cc1` [MLS000039074], the IC50 is more than 50 µM.

Take `Cc1ccc(Cl)cc1NC(=O)c1ocnc1C` [MLS000092879]: the IC50 was more than 50 µM.

Molecule `CNC(=O)c1nnc(Cc2ccc(F)cc2)o1` [5-(4-fluorobenzyl)-N-methyl-1,3,4-oxadiazole-2-carboxamide] had an IC50 of more than 50 µM.

In turn, `COc1ccc(NC=C2C(=O)CCCC2=O)cc1` [2-[[(4-methoxyphenyl)amino]methylidene]cyclohexane-1,3-dione] displayed a concentration for half-maximal inhibition (IC50) of 34.1 µM.

`COc1ccc(C2CC(c3cccc(C)c3)n3ncnc3N2)cc1` (stereo not drawn) [5-(4-methoxyphenyl)-7-(3-methylphenyl)-1,5,6,7-tetrahydro-[1,2,4]triazolo[1,5-a]pyrimidine] yielded an IC50 of more than 50 µM.

Consider `CCCCNC(=O)NS(=O)(=O)c1ccc(C)cc1` [1-Butyl-3-(p-methylphenylsulfonyl)urea], for which the half-maximal inhibitory concentration (IC50) was more than 50 µM.

The molecule `Cn1c2ccccc2c2nn(-c3ccccc3)c(=O)cc21` [5-methyl-2-phenyl-3-pyridazino[4,3-b]indolone] displayed an IC50 of more than 50 µM.

For the molecule `CCCCc1oc2ccccc2c1C(=O)c1cc(I)c(OCCN(CC)CC)c(I)c1` [(2-{4-[(2-butyl-1-benzofuran-3-yl)carbonyl]-2,6-diiodophenoxy}ethyl)diethylamine], the IC50 is more than 50 µM.

The molecule `O=C(c1ccco1)N(CCCN1CCOCC1)c1nc(-c2ccc(Cl)cc2)cs1` [Furan-2-carboxylic acid [4-(4-chloro-phenyl)-thiazol-2-yl]-(3-morpholin-4-yl-propyl)-amide] returned an IC50 of more than 50 µM.

As for `CCOC(=O)N1CCN(C2=CC(=O)OC23CCCCC3)CC1` [4-(2-Oxo-1-oxa-spiro[4.5]dec-3-en-4-yl)-piperazine-1-carboxylic acid ethyl ester], the IC50 is more than 50 µM.

As for `COc1cccc(NC(=O)CSc2nc3nnc(C)c-3c(N)n2-c2cccc(OC)c2)c1` [2-[4-amino-5-(3-methoxyphenyl)-3-methylpyrazolo[3,4-d]pyrimidin-6-yl]sulfanyl-N-(3-methoxyphenyl)acetamide], the IC50 is more than 50 µM.

Consider `CCOC(=O)c1c(C)n(C)c2ccc(OC)c(NC(=O)CN3CCCCC3)c12` [5-methoxy-1,2-dimethyl-4-[(2-piperidinoacetyl)amino]indole-3-carboxylic acid ethyl ester], for which the IC50 was more than 50 µM.

`Nc1cc(OC(=O)c2ccco2)nn1S(=O)(=O)c1ccc(F)cc1`: the midpoint of inhibition, the IC50, lay at 1.65 µM.

For the molecule `CCc1cccc2c(C#N)cn(CC(=O)NCc3ccco3)c12` [2-(3-cyano-7-ethyl-1-indolyl)-N-(2-furanylmethyl)acetamide], the IC50 was more than 50 µM.

As to `COc1cc(C2CC(C(F)(F)F)n3ncc(C(=O)O)c3N2)cc(OC)c1OC` (stereo not drawn) [7-(trifluoromethyl)-5-(3,4,5-trimethoxyphenyl)-1,5,6,7-tetrahydropyrazolo[1,5-a]pyrimidine-3-carboxylic acid], the IC50 is more than 50 µM.

For `CCOC(=O)C1CCN(S(=O)(=O)c2ccc(C(=O)OC)cc2)CC1` [1-(4-Methoxycarbonyl-benzenesulfonyl)-piperidine-4-carboxylic acid ethyl ester], the IC50 is more than 50 µM.

Molecule `O=S(=O)(c1ccc(F)cc1)N(CCO)CC(O)Cn1c2ccccc2c2ccccc21` (stereo not drawn) [MLS000088265] had a 50% inhibitory concentration (IC50) of more than 50 µM.

For `Cc1cccn2c(=O)c(/C=N/Cc3ccco3)c(Nc3ccc(Cl)cc3)nc12` [2-(4-chloroanilino)-3-(2-furanylmethyliminomethyl)-9-methyl-4-pyrido[1,2-a]pyrimidinone], the IC50 is more than 50 µM.

`CN1CCN(CC(=O)N2c3ccccc3C(=O)Nc3cccnc32)CC1` [11-[(4-methylpiperazin-1-yl)acetyl]-5,11-dihydro-6H-pyrido[2,3-b][1,4]benzodiazepin-6-one] had an IC50 of more than 50 µM.

With `Cc1ccc(S(=O)(=O)n2nc(OC(=O)c3cccs3)cc2N)cc1`, half-maximal inhibition (IC50) was put at 2.41 µM.

Regarding `CCCC(=O)Nc1ccc(NC(=O)C23CC4CC(CC(C4)C2)C3)cn1`, the IC50 is more than 50 µM.

Take `OC[C@H]1O[C@@H](n2cnc3c(NC4CCCC4)ncnc32)[C@H](O)[C@@H]1O`: the IC50 is more than 50 µM.

Molecule `COc1cccc2cc(-c3csc(CCn4nc(C)cc4C)n3)c(=O)oc12` [3-[2-[2-(3,5-dimethyl-1-pyrazolyl)ethyl]-4-thiazolyl]-8-methoxy-1-benzopyran-2-one] returned an IC50 of more than 50 µM.

The molecule `O=C(OC1CCCCC1)c1ccc2c(c1)C1C=CCC1C(C(=O)O)N2` (stereo not drawn) [SMR000019385] yielded an IC50 of more than 50 µM.

Take `CCC(=O)O[C@]1(C(=O)CCl)[C@@H](C)C[C@H]2[C@@H]3CCC4=CC(=O)C=C[C@]4(C)[C@@]3(F)[C@@H](O)C[C@@]21C` [MLS000028708]: the IC50 is more than 50 µM.

For the molecule `COc1cc(C=CC(=O)CC(=O)C=Cc2ccc(O)c(OC)c2)ccc1O` [(1E,6E)-1,7-bis(4-hydroxy-3-methoxyphenyl)hepta-1,6-diene-3,5-dione], the IC50 was more than 50 µM.

`C=CCn1c(SCC(=O)OC)nc2sc3c(c2c1=O)CCN(C)C3` [2-[(3-allyl-4-keto-7-methyl-6,8-dihydro-5H-pyrido[2,3]thieno[2,4-b]pyrimidin-2-yl)thio]acetic acid methyl ester] gave an IC50 of more than 50 µM.

For the molecule `O=C(c1cccs1)N1CCN(C(=O)c2ccco2)c2ccccc2C1` [1-(2-furoyl)-4-(thien-2-ylcarbonyl)-2,3,4,5-tetrahydro-1H-1,4-benzodiazepine], the IC50 was more than 50 µM.

As for `CCCC(CCC)C(=O)OC1C[C@H]2CC[C@@H](C1)[N+]2(C)C` (stereo partly drawn) [ANISOTROPINE METHYLBROMIDE], the IC50 was more than 50 µM.

Regarding `CC1=C(C#N)C(=O)OC(C)(C)C1` [2,2,4-trimethyl-6-oxidanylidene-3H-pyran-5-carbonitrile], the concentration for half-maximal inhibition (IC50) was more than 50 µM.

In turn, `COc1ccc(C2=Nn3c(nnc3-c3ccc(OC)cc3)SC2)cc1` showed an IC50 of more than 50 µM.

Molecule `CC(C[N+](C)(C)C)OC(N)=O` (stereo not drawn) [2-aminocarbonyloxypropyl(trimethyl)azanium;chloride] came in with an IC50 of more than 50 µM.

`O=C1NC(=O)C(c2ccccc2)(c2ccccc2)N1` [5,5-DIPHENYLHYDANTOIN SODIUM SALT] had an IC50 of more than 50 µM.

As to `COc1ccc(OC)c(NS(=O)(=O)c2cccs2)c1` [MLS000070319], the IC50 was more than 50 µM.

As to `COc1ccc(C2C3=C(CC(C)(C)CC3=O)Oc3ncn4nc(-c5cccnc5)nc4c32)cc1OC` (stereo not drawn) [MLS000040750], the IC50 was more than 50 µM.

Regarding `O=C(O)c1cc(-c2ccc(F)cc2F)ccc1O`, the IC50 is more than 50 µM.

Turning to `COC(=O)CSC1=NC2=C(C(=O)CCC2)C(c2ccc(C)cc2)C1C#N` (stereo not drawn) [methyl 2-[[3-cyano-4-(4-methylphenyl)-5-oxo-4,6,7,8-tetrahydro-1H-quinolin-2-yl]sulfanyl]acetate], the IC50 is more than 50 µM.

As for `CCN(CC(=O)Nc1ccccc1OC)C(=O)C1CC2C=CC1C2` (stereo not drawn) [MLS000053693], the IC50 is more than 50 µM.

`Cc1cc(OC(=O)c2ccccc2)n(CCC#N)n1` [[2-(2-cyanoethyl)-5-methyl-pyrazol-3-yl] benzoate] yielded a 50% inhibitory concentration (IC50) of 1.35 µM.

Molecule `COc1ccc(/C=C(/C#N)c2cccnc2)cc1OC` [(E)-3-(3,4-dimethoxyphenyl)-2-(3-pyridinyl)-2-propenenitrile] returned a half-maximal inhibitory concentration (IC50) of more than 50 µM.

On to `CN1C(=O)N(CN2CCCCC2)C2C1N(C)C(=O)N2CN1CCCCC1` (stereo not drawn) [1,6-dimethyl-3,4-bis(1-piperidinylmethyl)-3a,6a-dihydroimidazo[4,5-d]imidazole-2,5-dione], for which the IC50 was more than 50 µM.

`COc1ccc2c3c(cccc13)NN=C2C` [6-Methoxy-3-methyl-1H-benzo[de]cinnoline] showed an IC50 of 10.1 µM.

For `N[C@@H](Cc1ccc(O)c(I)c1)C(=O)O`, the IC50 was more than 50 µM.

The molecule `CCCn1c(SCC(=O)Nc2ccc3c(c2)OCCO3)nnc1-c1ccco1` [MLS000073448] showed a half-inhibitory concentration (IC50) of more than 50 µM.

Take `CNC(=O)Oc1ccc2c(c1)[C@]1(C)CCN(C)[C@@H]1N2C` [(3aS,8aR)-1,3a,8-trimethyl-1H,2H,3H,3aH,8H,8aH-pyrrolo[2,3-b]indol-5-yl N-methylcarbamate; 2-hydroxybenzoic acid]: the IC50 is more than 50 µM.

`Cc1csc2nc(CNC(=O)C3CC=CCC3C(=O)O)cn12` (stereo not drawn) [6-[(3-methylimidazo[2,1-b][1,3]thiazol-6-yl)methylcarbamoyl]cyclohex-3-ene-1-carboxylic acid] showed an IC50 of more than 50 µM.

Regarding `Cc1ccc(NC(=O)C2C3CC4OC(=O)C2C4C3)cc1Cl` (stereo not drawn) [N-(3-chloro-4-methylphenyl)-5-oxo-4-oxatricyclo[4.2.1.0~3,7~]nonane-9-carboxamide], the IC50 was more than 50 µM.

As to `COC(=O)c1c(NC(=O)C2CC2)sc2c1CCCC2` [2-(cyclopropanecarbonylamino)-4,5,6,7-tetrahydrobenzothiophene-3-carboxylic acid methyl ester], the IC50 is more than 50 µM.

Regarding `COP(=O)(OC)C(O)C(Cl)(Cl)Cl` (stereo not drawn) [(+-)-Trichlorfon], the IC50 was more than 50 µM.

These data come from BindingDB's records for doi:10.7270/Q2222S6W (University of Pittsburgh, 2007).
